Turning to `Cc1nccc(N2CCN(CC3CCN(S(=O)(=O)c4ccc(Cl)cc4)CC3)CC2)n1` [Example 1, 1-(4-chlorophenylsulphonyl)-4-[1-(2-methylpyrimidin-4-yl)piperazin-4ylmethyl]piperidine], the melting point is 191 to 193 °C (dec.). Compound `O=S(=O)(c1ccc(Br)cc1)N1CCC(CN2CCC(c3ccncc3)CC2)CC1` [Example 3, 1-(4-bromophenylsulphonyl)-4-[4-(4-pyridyl)-1-piperidylmethyl]piperidine] yielded a melting point of 163 to 164 °C. In the case of `Cc1nccc(N2CCC(CN3CCN(C(=O)c4ccc(F)cc4)CC3)CC2)n1` [Example 8, 1-(4-fluorobenzoyl)-4-[1-(2-methyl-4-pyrimidinyl)-4-piperidylmethyl]piperazine] it was 127 to 128 °C; in that of `Cc1cc(N2CCC(CN3CCN(S(=O)(=O)c4ccc(Cl)cc4)CC3)CC2)nc(C)n1` [Example 11, 1-(4-chlorophenylsulphonyl)-4-[1-(2,6-dimethylpyrimidin-4-yl)-4-piperidylmethyl]piperazine], 73 to 74 °C; in that of `Cc1nccc(N2CCC(O)(CN3CCN(C(=O)c4ccc(F)cc4)CC3)CC2)n1` [Example 15, 1-(4-fluorobenzoyl)-4-[1-(2-methylpyrimidin-4-yl]-4-hydroxy-4-piperidylmethyl]piperazine], 114 to 117 °C. As for `O=S(=O)(c1ccc(Br)cc1)N1CCN(CC2CCN(c3ccncc3)CC2)CC1` [Example 19, 1-(4-bromophenylsulphonyl)-4-[1-(4-pyridyl)piperidin-4-ylmethyl]piperazine], the melting point fell in the range of 179 to 180 °C. In the case of `O=S(=O)(c1ccc(Br)cc1)N1CCN(CC2CCN(c3ccncc3Cl)CC2)CC1` [Example 20, 1-(4-bromophenylsulphonyl)-4-[1-(3-chloro-4-pyridyl)piperidin-4-ylmethyl]piperazine] it was 158 to 159 °C.

The values above are taken from patent US6335341B1, “Pyridyl-and pyrimidyl-heterocyclic compounds inhibiting oxido squalene-cyclase” (Zeneca Limited, priority 1997, dated 2002).
